Test results published in ChEMBL document CHEMBL5096190, “Recent advances of quinones as a privileged structure in drug discovery” (Eur J Med Chem, 2021).
Converted amounts (≈) assume the structure as drawn.

Assays:
[1] = tested on: GBM; experiment: Anticancer activity against human GBM cells assessed as cell growth inhibition incubated for 72 hrs; format: functional, cell-based
[2] = biological target: T1, Arylsulfatase A (Homo sapiens, UniProt P15289); experiment: Inhibition of ARSA (unknown origin) using 4-methylumbelliferyl sulfate (4-MUS) as a substrate by fluorescent assay
T1 sequence (P15289 whole entry): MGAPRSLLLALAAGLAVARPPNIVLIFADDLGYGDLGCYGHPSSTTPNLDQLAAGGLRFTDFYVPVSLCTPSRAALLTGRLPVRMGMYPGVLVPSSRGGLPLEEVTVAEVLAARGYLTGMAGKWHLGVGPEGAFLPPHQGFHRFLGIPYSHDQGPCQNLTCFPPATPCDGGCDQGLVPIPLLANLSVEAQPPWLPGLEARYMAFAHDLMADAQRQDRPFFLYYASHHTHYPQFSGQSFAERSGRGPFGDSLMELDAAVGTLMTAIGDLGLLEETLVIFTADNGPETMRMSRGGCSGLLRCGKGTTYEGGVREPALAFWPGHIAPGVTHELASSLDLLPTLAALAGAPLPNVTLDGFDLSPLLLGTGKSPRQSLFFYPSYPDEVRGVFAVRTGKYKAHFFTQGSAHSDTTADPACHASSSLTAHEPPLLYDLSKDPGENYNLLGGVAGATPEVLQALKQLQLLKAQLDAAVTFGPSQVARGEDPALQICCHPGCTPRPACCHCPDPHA

[3] = biological target: T1, Arylsulfatase A; experiment: Binding affinity to ARSA (unknown origin) assessed as dissociation constant by SPR analysis
[4] = tested on: Enterococcus hirae; experiment: Antibacterial activity against Enterococcus hirae ATCC 10541 assessed as growth inhibition after 24 hrs by two-fold serial dilution method; format: functional
[5] = Inhibition of Hepatitis C virus NS3 helicase measured by fluorescence helicase assay; parameters: species or system Hepacivirus hominis
[6] = tested on: MIA PaCa-2; experiment: Antitumor activity against human MIA PaCa-2 cells assessed as reduction in cell viability and incubated for 3 hrs by MTT assay; format: functional, cell-based; details: MIA PaCa-2, 3 h
[7] = tested on: BXPC-3; experiment: Antitumor activity against human BXPC-3 cells assessed as reduction in cell viability and incubated for 3 hrs by MTT assay; format: functional, cell-based; details: BXPC-3, 3 h
[8] = tested on: PANC-1; experiment: Antitumor activity against human PANC-1 cells assessed as reduction in cell viability and incubated for 3 hrs by MTT assay; format: functional, cell-based; details: PANC-1, 3 h
[9] = biological target: Cholinesterase (Homo sapiens, UniProt P06276); experiment: Inhibition of human BuChE at 550 uM using butyrylthiocholine chloride as substrate by Ellman's method
[10] = tested on: MOLT-4; experiment: Cytotoxicity against human MOLT-4 cells assessed as inhibition of cell growth incubated for 24 to 72 hrs by MTT assay; format: functional, cell-based
[11] = tested on: SGC-7901; experiment: Cytotoxicity against human SGC-7901 cells assessed as reduction in cell viability measured after 72 hrs by MTT assay; format: functional, cell-based; details: SGC-7901, 72 h
[12] = tested on: MGC-803; experiment: Cytotoxicity against human MGC-803 cells assessed as reduction in cell viability measured after 72 hrs by MTT assay; format: functional, cell-based; details: MGC-803, 72 h
[13] = tested on: U-87 MG; experiment: Cytotoxicity against human U87 cells assessed as reduction in cell viability measured after 72 hrs by MTT assay; format: functional, cell-based, U-87MG ATCC
[14] = Inhibition of NFAT activity in human GBM cells; format: cell-based

Cholinesterase, sequence (P06276 whole entry): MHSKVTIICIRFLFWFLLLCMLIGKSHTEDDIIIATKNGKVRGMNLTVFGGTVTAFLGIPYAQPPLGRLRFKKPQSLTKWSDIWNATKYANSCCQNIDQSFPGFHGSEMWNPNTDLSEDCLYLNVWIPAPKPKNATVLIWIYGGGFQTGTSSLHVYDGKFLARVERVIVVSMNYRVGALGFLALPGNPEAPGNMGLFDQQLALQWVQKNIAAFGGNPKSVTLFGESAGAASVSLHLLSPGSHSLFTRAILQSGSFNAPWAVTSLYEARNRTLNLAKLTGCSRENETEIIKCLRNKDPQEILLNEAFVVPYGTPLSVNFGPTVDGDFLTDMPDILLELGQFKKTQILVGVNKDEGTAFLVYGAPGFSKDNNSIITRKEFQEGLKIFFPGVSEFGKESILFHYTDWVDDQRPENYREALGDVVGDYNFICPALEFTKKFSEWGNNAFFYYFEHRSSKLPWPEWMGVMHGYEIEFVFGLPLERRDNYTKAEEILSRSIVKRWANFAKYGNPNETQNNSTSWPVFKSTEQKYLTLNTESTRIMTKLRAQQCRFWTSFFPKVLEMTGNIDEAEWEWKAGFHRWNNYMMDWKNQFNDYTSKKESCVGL

For Nc1c(-c2ccccc2)ncc2c1C(=O)c1c(-c3ccccn3)nn(-c3ccc(F)cc3F)c1C2=O, the IC50 [1] was 25 µM.

In the case of O=C1C=CC(=O)c2c1ccc1c2c(=O)oc2c3ccccc3ccc12, the IC50 [2] is reported as 13.2 µM and the Kd [3] is reported as 21 µM.

Work on NC1=C(NC(=O)Cn2cc(CCBr)nn2)C(=O)c2ccccc2C1=O yielded an MIC [4] of 4 µg/mL (≈ 9.9 µM).

For NC1=C(NC(=O)Cn2cc(CC3CCCCC3)nn2)C(=O)c2ccccc2C1=O, the MIC [4] was 4 µg/mL (≈ 10.2 µM).

For O=C(O)c1cc(O)c2c(c1)[C@H]([C@@H]1c3cccc(O)c3C(=O)c3c(O)cc(C(=O)O)cc31)c1cccc(O)c1C2=O, the IC50 [5] was 0.8 µM.

CC(=O)c1ccccc1NC1=CC(=O)c2ncncc2C1=O gave an IC50 [6] of 1.9 µM, an IC50 [7] of 2.7 µM and an IC50 [8] of 2.2 µM.

In the case of Cc1cc(O)c2c(=O)c3c(O)cc(O)c4c5c(O)cc(O)c6c(=O)c7c(O)cc(C)c8c1c2c(c34)c(c78)c65 [HYPERICIN], the IC50 [5] is reported as 3 µM.

With Nc1c(-c2cccnc2)ncc2c1C(=O)c1c(-c3ccccn3)nn(-c3ccc(F)cc3F)c1C2=O the IC50 [1] was 25 µM.

With CC1=C(NC2CCN(Cc3ccccc3)CC2)C(=O)c2ccccc2C1=O the IC50 [9] was 0.0957 µM.

Work on C[C@@]12CCC(=O)c3coc(c31)C(=O)c1cc3c(cc12)C(=O)C=CC3=O [HELENAQUINONE] yielded an IC50 [10] of 1.44 µM.

CC(C)=CCC(OC(=O)CCC(=O)Nc1ccc(Oc2ccccc2)cc1)C1=CC(=O)c2c(O)ccc(O)c2C1=O (stereo not drawn) showed an IC50 [11] of 4.1 µM, an IC50 [12] of 4.1 µM and an IC50 [13] of 3.8 µM.

O=C1c2c(O)ccc(O)c2C(=O)c2c(O)ccc(O)c21 gave an IC50 [5] of 6 µM.

O=C1C=C(Nc2ccc3cnccc3c2)c2ccccc2C1=O gave an IC50 [14] of 0.82 µM.
